Assay results: ChEMBL document CHEMBL1129576, “Nucleosides and nucleotides. 158. 1-(3-C-ethynyl-beta-D-ribo-pentofuranosyl)-cytosine, 1-(3-C-ethynyl-beta-D-ribo-pentofuranosyl)uracil, and their nucleobase analogues as new potential multifunctional antitumor nucleosides with a broad spectrum of activity” (J Med Chem, 1996)

How the values were obtained:
KB = experiment: In vitro tumor cell growth inhibitory activity against human nasopharyngeal KB cell lines; assay type: functional, cell-based
L1210 = experiment: In vitro tumor cell growth inhibitory activity against mouse leukemia L1210 cell lines.; assay type: functional, cell-based
Mus musculus [1] = experiment: In vivo tumor cell growth inhibitory activity of H-81 tumor xenograft of stomach in nude mice at a concentration of 15 mg/kg for 15 days; assay type: functional
Mus musculus [2] = experiment: In vivo tumor cell growth inhibitory activity against AZ-521 tumor xenograft of stomach in nude mice at a concentration of 15 mg/kg for 15 days; assay type: functional
Mus musculus [3] = experiment: In vivo tumor cell growth inhibitory activity against DLD-1 tumor xenograft of […] in nude mice at a concentration of 15 mg/kg for 15 days; assay type: functional
Mus musculus [4] = experiment: In vivo tumor cell growth inhibitory activity against H-31 cells tumor xenograft of breast in nude mice at a concentration of 15 mg/kg for 15 days; assay type: functional
Mus musculus [5] = experiment: In vivo tumor cell growth inhibitory activity against Hucc-T1 cells tumor xenograft of bile duct in nude mice at a concentration of 15 mg/kg for 15 days; assay type: functional
Mus musculus [6] = experiment: In vivo inhibitory activity against BxPC-3 tumor xenograft of pancreas in nude mice at a concentration of 15 mg/kg for 15 days; assay type: functional
Mus musculus [7] = experiment: In vivo tumor cell growth inhibitory activity against JRC-11 cells tumor xenograft of renal in nude mice at a concentration of 15 mg/kg for 15 days; assay type: functional
Mus musculus [8] = experiment: In vivo tumor cell growth inhibitory activity against KM12C tumor xenograft of […] in nude mice at a concentration of 15 mg/kg for 15 days; assay type: functional
Mus musculus [9] = experiment: In vivo inhibitory activity against PAN-12 tumor xenograft of pancreas in nude mice at a concentration of 15 mg/kg for 15 days; assay type: functional
Mus musculus [10] = experiment: In vivo tumor cell growth inhibitory activity of CO-3 tumor xenograft of […] in nude mice at a concentration of 15 mg/kg for 15 days; assay type: functional

Work on `C#C[C@@]1(O)[C@@H](CO)O[C@@H](n2cnc3c(N)ncnc32)[C@@H]1O` yielded an IC50 (KB) of 0.83 µM and an IC50 (L1210) of 0.69 µM.

For `C#C[C@@]1(O)[C@@H](CO)O[C@@H](n2cc(C)c(=O)[nH]c2=O)[C@@H]1O`, the IC50 (KB) was over 300 µM and the IC50 (L1210) was over 300 µM.

`C#CC1(O)[C@@H](CO)O[C@@H](n2cnc3c(O)nc(N)nc32)[C@@H]1O` (single isomer, unassigned) showed an IC50 (KB) of over 300 µM and an IC50 (L1210) of over 300 µM.

`O=c1[nH]cc(F)c(=O)[nH]1` [FLUOROURACIL] gave an Inhibition ratio (Mus musculus [1]) of 83%, an Inhibition ratio (Mus musculus [2]) of 25% and an Inhibition ratio (Mus musculus [3]) of 50%. It also gave an Inhibition ratio (Mus musculus [4]) of 68%, an Inhibition ratio (Mus musculus [5]) of 1% and an Inhibition ratio (Mus musculus [6]) of 50%. It also gave an Inhibition ratio (Mus musculus [7]) of 69%, an Inhibition ratio (Mus musculus [8]) of 59% and an Inhibition ratio (Mus musculus [9]) of 40%. For the same compound, the Inhibition ratio (Mus musculus [10]) was 49%.
